Source: PMC8400968, “Design, Synthesis, Biological Evaluation, and Computational Studies of Novel Tri-Aryl Imidazole-Benzene Sulfonamide Hybrids as Promising Selective Carbonic Anhydrase IX and XII Inhibitors” (Molecules, 2021)
“And” between values parts separate entries of the source, which are not always exact repeats. Identical values can stand only once. Like-named read-outs stand apart in the source and are kept apart here.

How the values were obtained:
hCA I = target: T1, hCA I (Homo sapiens, UniProt P00915); assay: stopped-flow CO2 hydrase assay, hCA I; type: biochemical
T1 construct: made in house
Description: (§1) Newly synthesized hybrids 5a–n were tested for their inhibitory activity against four physiologically and pharmacologically CA isoforms, namely cytosolic hCA I and II, and tumor-associated isoforms hCA IX and XII, using a CO2 hydrase stop-flow assay. Acetazolamide (AAZ), clinically used sulphonamide, was used as the standard drug. […] The ability of imidazoles 5a–n toward inhibition of hCA I, II (cytosolic) as well as hCA IX and XII (transmembrane, tumor-associated isoforms) using stopped-flow CO2 hydrase assay was evaluated. See Appendix A.
(§2) The enzymes are recombinant proteins prepared in our lab. […] The uncatalyzed rates were determined in the same manner and subtracted from the total observed rates. Stock solutions of inhibitor (0.1 mM) were prepared in distilled-deionized water and dilutions up to 0.01 nM were done thereafter with the assay buffer. Inhibitor and enzyme solutions were preincubated together for 15 min at room temperature prior to assay, in order to allow for the formation of the E-I complex. The inhibition constants were obtained by non-linear least-squares methods using PRISM 3 and the Cheng-Prusoff equation, and represent the mean from at least three different determinations.

hCA II = target: T2, hCA II (Homo sapiens, UniProt P00918); assay: stopped-flow CO2 hydrase assay, hCA II; type: biochemical
T2 construct: made in house
Description: as §1, §2

hCA IX = target: T3, hCA IX (Homo sapiens, UniProt Q16790); assay: stopped-flow CO2 hydrase assay, hCA IX; type: biochemical; settings: for Selectivity Ratio hCA XII/ hCA IX: selectivity for hCA IX over hCA XII; for Ki: stopped-flow CO2 hydrase assay; for IC50: quoted in docking discussion, read-out: IC50 CA-IX (in vitro inhibitory activity quoted in docking study); for fold lower inhibitory activity on hCA IX than the ortho-derivative: 5f vs 5e, 5h vs 5g
T3 construct: made in house
Description: as §1, §2

hCA XII = target: T4, hCA XII (Homo sapiens, UniProt O43570); assay: stopped-flow CO2 hydrase assay, hCA XII; type: biochemical
T4 construct: made in house
Description: Newly synthesized hybrids 5a–n were tested for their inhibitory activity against four physiologically and pharmacologically CA isoforms, namely cytosolic hCA I and II, and tumor-associated isoforms hCA IX and XII, using a CO2 hydrase stop-flow assay. Acetazolamide (AAZ), clinically used sulphonamide, was used as the standard drug. […]. The ortho substitution in the aryl moiety appears to correlate with higher inhibitory effects against both hCA IX and XII. […] […]. The ability of imidazoles 5a–n toward inhibition of hCA I, II (cytosolic) as well as hCA IX and XII (transmembrane, tumor-associated isoforms) using stopped-flow CO2 hydrase assay was evaluated. See Appendix A.
The carbonic anhydrase catalyzed CO2 hydration actions for all new compounds herein reported have were assayed utilizing an instrument of Applied Photophysics stopped-flow. The enzymes are recombinant proteins prepared in our lab. […]. The uncatalyzed rates were determined in the same manner and subtracted from the total observed rates. Stock solutions of inhibitor (0.1 mM) were prepared in distilled-deionized water and dilutions up to 0.01 nM were done thereafter with the assay buffer. Inhibitor and enzyme solutions were preincubated together for 15 min at room temperature prior to assay, in order to allow for the formation of the E-I complex. The inhibition constants were obtained by non-linear least-squares methods using PRISM 3 and the Cheng-Prusoff equation, and represent the mean from at least three different determinations.

[1] = Cell viability assay (MTT); type: cell-based; settings: human, MCF-10A mammary gland epithelial cells, MCF-10A cells, incubated 4 days
Description: Cell viability assay was carried out using human mammary gland epithelial cell line (MCF-10A). MCF-10A cells were incubated with compounds 5b, 5d, 5e, 5g, 5j and 5n for 4 days and MTT assay was used to determine the viability of cells. See Appendix A.
MTT assay was carried out to study the effect of compounds on mammary epithelial cells (MCF-10A). The medium in which cells were propagated contained Dulbecco’s modified Eagle’s medium (DMEM)/Ham’s F-12 medium (1:1) supplemented with epidermal growth factor (20 ng/mL), hydrocortisone (500 ng/mL), insulin (10 μg/mL), 2 mM glutamine and 10% fetal calf serum. After every 2–3 days, the cells were passaged using trypsin ethylenediamine tetra acetic acid (EDTA). The cells were seeded at a density of 10^4 cells mL^−1 in flat-bottomed culture plates containing 96 wells each. After 24 h, medium was removed from the plates and the compounds in (in 0.1% DMSO) were added (in 200 μL medium to yield a final concentration of 0.1% v/v) to the wells of plates. A single compound was designated with four wells followed by incubation of plates for 96 h at 37 °C. After incubation, medium was removed completely from the plates followed by addition of MTT (0.4 mg/mL in medium) to each well and subsequent incubation of plates for 3 h. MTT (along with the medium) was removed and DMSO (150 μL) was added to each well of the culture plates, followed by vortexing and subsequent measurement of absorbance (at 540 nm) using microplate reader. The data are shown as percentage inhibition of proliferation in comparison with controls containing 0.1% DMSO.

[2] = test system: epithelial cancer cell line (A-549); assay: Antiproliferative activity, MTT assay, A-549; type: cell-based; settings: Homo sapiens, A549; A-549, MTT; read-out: Antiproliferative Activity IC50 ± SEM A-549
Description: (§3) The antiproliferative activity of 5b, 5d, 5e, 5g, 5j and 5n against four human cancer cell lines including pancreatic cancer cell line (Panc-1), breast cancer cell line (MCF-7), colon cancer cell line (HT-29) and epithelial cancer cell line (A-549) using MTT assay and doxorubicin was applied as the reference compound [22, 23]. Graph Pad Prism software (Graph Pad Software, San Diego, CA, USA) was used to calculate the median inhibition concentration (IC50) and results are recorded in Table 2.
(§4) The antiproliferative activity of 5b, 5d, 5e, 5g, 5j and 5n against four human cancer cell lines including pancreatic cancer cell line (Panc-1), breast cancer cell line (MCF-7), colon cancer cell line (HT-29) and epithelial cancer cell line (A-549) using MTT assay and doxorubicin was applied as the reference compound [22, 23]. See Appendix A.
(§5) To explore the antiproliferative potential of compounds MTT assay was performed according to previously reported procedure using different cell lines To explore the antiproliferative potential of compounds propidium iodide fluorescence assay was performed using different cell lines. To calculate the total nuclear DNA, a fluorescent dye (propidium iodide, PI) is used which can attach to the DNA, thus offering a quick and precise technique. PI cannot pass through the cell membrane and its signal intensity can be considered as directly proportional to quantity of cellular DNA. Cells whose cell membranes are damaged or have changed permeability are counted as dead ones. The assay was performed by seeding the cells of different cell lines at a density of 3000–7500 cells/well (in 200 µL medium) in culture plates followed by incubation for 24 h at 37 °C in humidified 5% CO2/95% air atmospheric conditions. The medium was removed; the compounds were added to the plates at 10 µM concentrations (in 0.1% DMSO) in triplicates, followed by incubation for 48 h. DMSO (0.1%) was used as control. After incubation, medium was removed followed by the addition of PI (25 µL, 50µg/mL in water/medium) to each well of the plates. At −80 °C, the plates were allowed to freeze for 24 h, followed by thawing at 25 °C. A fluorometer (Polar-Star BMG Tech, Offenburg, Germany) was used to record the readings at excitation and emission wavelengths of 530 and 620 nm for each well. The percentage cytotoxicity of compounds was calculated using the following formula: %Cytotoxicity=(Ac−Atc)/Ac×100 where Atc = Absorbance of treated cells and Ac = Absorbance of control. Erlotinib was used as positive control in the assay.

[3] = test system: breast cancer cell line (MCF-7); assay: Antiproliferative activity, MTT assay, MCF-7; type: cell-based; settings: Homo sapiens, MCF7; MCF-7, MTT; read-out: Antiproliferative Activity IC50 ± SEM MCF-7
Description: as §3, §4, §5

[4] = test system: pancreatic cancer cell line (Panc-1); assay: Antiproliferative activity, MTT assay, Panc-1; type: cell-based; settings: Homo sapiens; Panc-1, MTT; read-out: Antiproliferative Activity IC50 ± SEM Panc-1
Description: as §3, §4, §5

[5] = test system: colon cancer cell line (HT-29); assay: Antiproliferative activity, MTT assay, HT-29; type: cell-based; settings: Homo sapiens; HT-29, MTT; read-out: Antiproliferative Activity IC50 ± SEM HT-29
Description: as §3, §4, §5

[6] = test system: four human cancer cell lines (Panc-1, MCF-7, HT-29, A-549); assay: Antiproliferative activity, MTT assay, average of the four cell lines; type: cell-based; settings: for IC50: average of A-549, MCF-7, Panc-1, HT-29; for GI50: four cancer cell lines, read-out: GI50
Description: as §3, §4, §5

[7] = stopped-flow CO2 hydrase assay, read-out: Ki hCA I

T4 sequence (O43570 25-354): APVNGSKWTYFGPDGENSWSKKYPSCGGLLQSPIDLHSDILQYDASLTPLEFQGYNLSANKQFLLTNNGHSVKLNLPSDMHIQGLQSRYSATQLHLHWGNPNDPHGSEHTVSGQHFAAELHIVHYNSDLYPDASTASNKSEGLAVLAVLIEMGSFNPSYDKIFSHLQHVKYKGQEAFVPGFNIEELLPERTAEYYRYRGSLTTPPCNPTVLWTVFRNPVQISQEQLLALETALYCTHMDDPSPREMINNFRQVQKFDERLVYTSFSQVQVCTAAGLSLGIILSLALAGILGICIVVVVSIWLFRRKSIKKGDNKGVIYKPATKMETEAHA
T1 sequence (P00915 whole entry): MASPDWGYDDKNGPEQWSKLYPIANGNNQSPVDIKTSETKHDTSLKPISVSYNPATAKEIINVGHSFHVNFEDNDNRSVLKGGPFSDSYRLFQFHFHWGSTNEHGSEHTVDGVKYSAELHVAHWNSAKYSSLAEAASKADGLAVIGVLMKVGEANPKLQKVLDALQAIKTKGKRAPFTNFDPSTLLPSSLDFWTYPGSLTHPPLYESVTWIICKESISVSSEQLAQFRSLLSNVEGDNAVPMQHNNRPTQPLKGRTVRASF

| SMILES | Ki (hCA I) [µM] | Ki (hCA II) [µM] | Selectivity Ratio hCA XII/ hCA IX (hCA IX) | Ki (hCA IX) | Ki (hCA XII) [µM] | melting point [°C] | Ki (hCA I; [7]) [µM] | IC50 (hCA IX) [µM] | IC50 [2] [µM] | IC50 [3] [µM] | IC50 [4] [µM] | IC50 [5] [µM] | IC50 [6] [µM] | GI50 [6] [µM] | fold lower inhibitory activity on hCA IX than the ortho-derivative (hCA IX) [fold] | viability at 96 h [1] [%] |
| --- | --- | --- | --- | --- | --- | --- | --- | --- | --- | --- | --- | --- | --- | --- | --- | --- |
| NS(=O)(=O)c1ccc(-n2c(-c3ccccc3)nc(-c3ccccc3)c2-c2ccccc2)cc1 [Compound 5a, 4-(2,4,5-Triphenyl-1H-imidazol-1-yl)benzene sulfonamide] | > 100 | > 100 | 1.90 | 2.9 µM | 5.5 | 210 to 212 | – | – | – | – | – | – | – | – | – | – |
| NS(=O)(=O)c1ccc(-n2c(-c3ccccc3Br)nc(-c3ccccc3)c2-c2ccccc2)cc1 [Compound 5b, 4-(2-(2-Bromophenyl)-4,5-diphenyl-1H-imidazol-1-yl)benzene sulfonamide] | – | > 100 | 11.50 | 0.36 µM and 0.4 µM | 4.6 | – | > 100 | 0.36 | 2.8 ± 0.5 | 2.7 ± 0.4 | 2.5 ± 0.2 | 3.1 ± 0.1 | 2.8 | 2.8 | – | 91 |
| NS(=O)(=O)c1ccc(-n2c(-c3ccccc3O)nc(-c3ccccc3)c2-c2ccccc2)cc1 [Compound 5e, 4-(2-(2-Hydroxyphenyl)-4,5-diphenyl-1H-imidazol-1-yl)benzene sulfonamide] | > 100 | > 100 | 6.50 | 0.84 µM and 0.8 µM | 5.2 | – | – | – | 4.4 ± 0.7 | 3.6 ± 0.8 | 3.7 ± 0.5 | 3.9 ± 0.6 | 3.9 | – | – | 86 |
| COc1ccc(-c2nc(-c3ccccc3)c(-c3ccccc3)n2-c2ccc(S(N)(=O)=O)cc2)cc1OC [Compound 5i, 4-(2-(3,4-Dimethoxyphenyl)-4,5-diphenyl-1H-imidazol-1-yl)benzene sulfonamide] | > 100 | > 100 | 0.70 | 9.2 µM | 6.6 | 260 to 262 | – | 9.2 | – | – | – | – | – | – | – | – |
| COc1cccc2c1C(=O)c1c(O)c3c(c(O)c1C2=O)C[C@@](O)(C(=O)CO)C[C@@H]3O[C@H]1C[C@H](N)[C@H](O)[C@H](C)O1 [Doxorubicin, reference compound] | – | – | – | – | – | – | – | – | 1.2 ± 0.8 | 0.9 ± 0.6 | 1.4 ± 0.6 | 1 ± 0.8 | 1.1 | 1.1 | – | – |

More lines, main results first:

| Ki (hCA I) [µM] | Ki (hCA II) [µM] | Selectivity Ratio hCA XII/ hCA IX (hCA IX) | Ki (hCA IX) | Ki (hCA XII) [µM] | melting point [°C] | Ki (hCA I; [7]) [µM] | IC50 (hCA IX) [µM] | IC50 [2] [µM] | IC50 [3] [µM] | IC50 [4] [µM] | IC50 [5] [µM] | IC50 [6] [µM] | GI50 [6] [µM] | fold lower inhibitory activity on hCA IX than the ortho-derivative (hCA IX) [fold] | SMILES | viability at 96 h [1] [%] |
| --- | --- | --- | --- | --- | --- | --- | --- | --- | --- | --- | --- | --- | --- | --- | --- | --- |
| > 100 | > 100 | 0.45 | 8.2 µM | 3.7 | 230 to 232 | – | – | – | – | – | – | – | – | – | NS(=O)(=O)c1ccc(-n2c(-c3ccc(Cl)cc3)nc(-c3ccccc3)c2-c2ccccc2)cc1 [Compound 5c, 4-(2-(4-Chlorophenyl)-4,5-diphenyl-1H-imidazol-1-yl)benzene sulfonamide] | – |
| > 100 | > 100 | 0.90 | 8.4 µM | 7.1 | – | – | – | – | – | – | – | – | – | 10 | NS(=O)(=O)c1ccc(-n2c(-c3ccc(O)cc3)nc(-c3ccccc3)c2-c2ccccc2)cc1 [Compound 5f, 4-(2-(4-Hydroxyphenyl)-4,5-diphenyl-1H-imidazol-1-yl)benzene sulfonamide] | – |
| > 100 | > 100 | 0.50 | 7.4 µM | 3.9 | 235 to 237 | – | – | – | – | – | – | – | – | 22 | COc1ccc(-c2nc(-c3ccccc3)c(-c3ccccc3)n2-c2ccc(S(N)(=O)=O)cc2)cc1 [Compound 5h, 4-(2-(4-Methoxyphenyl)-4,5-diphenyl-1H-imidazol-1-yl)benzene sulfonamide] | – |
| > 100 | > 100 | 0.70 | 9.3 µM | 6.8 | 224 to 226 | – | 9.3 | – | – | – | – | – | – | – | CN(C)c1ccc(-c2nc(-c3ccccc3)c(-c3ccccc3)n2-c2ccc(S(N)(=O)=O)cc2)cc1 [Compound 5k, 4-(2-(4-(Dimethylamino)phenyl)-4,5-diphenyl-1H-imidazol-1-yl)benzene sulfonamide] | – |
| > 100 | > 100 | 0.80 | 8.5 µM | 6.8 | 200 to 202 | – | – | – | – | – | – | – | – | – | NS(=O)(=O)c1ccc(-n2c(-c3ccc(C(=O)O)cc3)nc(-c3ccccc3)c2-c2ccccc2)cc1 [Compound 5l, 4-(4,5-Diphenyl-1-(4-sulfamoylphenyl)-1H-imidazol-2-yl)benzoic acid] | – |
| – | > 100 | 0.70 | 8.8 µM | 6.2 | 216 to 218 | > 100 | – | – | – | – | – | – | – | – | CCOC(=O)c1ccc(-c2nc(-c3ccccc3)c(-c3ccccc3)n2-c2ccc(S(N)(=O)=O)cc2)cc1 [Compound 5m, Ethyl 4-(4,5-diphenyl-1-(4-sulfamoylphenyl)-1H-imidazol-2-yl)benzoate] | – |
